The results in this text go back to patent publication EP3461488A1, “COMBINATION OF A DBAIT MOLECULE AND A HDAC INHIBITOR FOR TREATING CANCER” (ONXEO, priority 2017, dated 2019).

Data set [1] has as its system histiocytic lymphoma cell line U937. Put plainly: XTT cell survival assay and combination index analysis, U937. The settings on record: Homo sapiens, U-937. It counts as cell-based. For orientation: Tetrazolium dyes change colour on reduction, which living cells bring about.
Experimental: (§1) Cell cultures were performed with the triple negative breast cancer cell line MDA-MB-231, the histiocytic lymphoma cell line U937 and the non-tumor mammary cell line MCF-10A. Cells were grown according to the supplier's instructions. Cell lines were maintained at 37°C in a humidified atmosphere at 5% CO2, except the MDA-MB-231 cell line which was maintained at 0% CO2.
(§2) In a first step, the characterization of the effect of drugs monotherapy on cell survival (tumour and non-tumour cells) was performed. MDA-MB-231 (5.10^3 cells/well), MCF-10A (5.10^3 cells/well) and U937 (2.10^4 cells/well) were seeded in 96 well-plates and incubated 24 hours at +37°C before drug addition with increasing concentrations for 4 to 7 days. Following drug exposure, cell survival was measured using the XTT assay (Sigma Aldrich). Briefly, the XTT solution was added directly to each well containing cell culture and the cells incubated for 4 to 24 hours at 37°C before reading the absorbance at 490 nm and 690 nm using a microplate reader (BMG Fluostar, Galaxy). Cell survival was calculated as the ratio of living treated cells to living mock-treated cells. The IC50 (which represents the dose at which 50% of the cells are viable) was calculated by a non-linear regression model using GraphPad Prism software (version 5.04) by plotting the percentage viability against the Log of the drug concentration on each cell line.
Data set [2] relates to non-tumor mammary cell line MCF-10A. The data set is described as follows: XTT cell survival assay, non-tumor cells MCF-10A. The following applies: same drug doses as MDA-MB-231, 7 days after treatment, result in words.
Experimental: as §1, §2
(§3) In a second step, analysis and quantification of the drug combination efficacy were performed. Cells were seeded in 96-well plates at the appropriate densities and treated with AsiDNA and/or the HDAC inhibitor (HDACi) belinostat simultaneously during 4 to 7days.
In a first step, the characterization of the effect of drugs monotherapy on cell survival (tumour and non-tumour cells) was performed. MDA-MB-231 (5.10^3 cells/well), MCF-10A (5.10^3 cells/well) and U937 (2.10^4 cells/well) were seeded in 96 well-plates and incubated 24 hours at +37°C before drug addition with increasing concentrations for 4 to 7 days. Following drug exposure, cell survival was measured using the XTT assay (Sigma Aldrich). Briefly, the XTT solution was added directly to each well containing cell culture and the cells incubated for 4 to 24 hours at 37°C before reading the absorbance at 490 nm and 690 nm using a microplate reader (BMG Fluostar, Galaxy). Cell survival was calculated as the ratio of living treated cells to living mock-treated cells. […] In a second step, analysis and quantification of the drug combination efficacy were performed. […] Cell survival was measured using the XTT assay (see above). Combination efficacy was evaluated by "the combination index (CI)" which was determined using the CalcuSyn software tool based on the Chou Talalay method. […]
For data set [3], the system named is triple negative breast cancer cell line MDA-MB-231. Put plainly: XTT cell survival assay and combination index analysis, MDA-MB-231. It counts as cell-based. The settings on record: Homo sapiens.
Experimental: Cells were grown according to the supplier's instructions.
In a first step, the characterization of the effect of drugs monotherapy on cell survival (tumour and non-tumour cells) was performed. […] Following drug exposure, cell survival was measured using the XTT assay (Sigma Aldrich). […] Cell survival was calculated as the ratio of living treated cells to living mock-treated cells.
as §3
Combination efficacy was evaluated by "the combination index (CI)" which was determined using the CalcuSyn software tool based on the Chou Talalay method). […] Note that we define synergism as a more than expected additive effect, and antagonism as a less than expected additive effect.
In a first step, the characterization of the effect of drugs monotherapy on cell survival (tumour and non-tumour cells) was performed. […] Following drug exposure, cell survival was measured using the XTT assay (Sigma Aldrich). […] Cell survival was calculated as the ratio of living treated cells to living mock-treated cells. […] In a second step, analysis and quantification of the drug combination efficacy were performed. […] Cell survival was measured using the XTT assay (see above). Combination efficacy was evaluated by "the combination index (CI)" which was determined using the CalcuSyn software tool based on the Chou Talalay method. […]
In a first step, characterization of the effect of drugs monotherapy on cell survival (tumour and non-tumour cells) was performed. […] Following drug exposure, cell survival was measured using the XTT assay (Sigma Aldrich). […] Cell survival was calculated as the ratio of living treated cells to living mock-treated cells. […] In a second step, analysis and quantification of the drug combination efficacy were performed. […] Cell survival was measured using the XTT assay (see above). […]
[4] abbreviates: U937, XTT assay, monotherapy, increasing concentrations for 4 to 7 days, dose at which 50% of the cells are viable, read-out: IC50.
Where [5] appears, read: XTT assay, monotherapy, increasing concentrations for 4 to 7 days, dose at which 50% of the cells are viable, read-out: IC50.

Like-named read-outs stand apart in the source and are kept apart here.

On to `O=C(/C=C/c1cccc(S(=O)(=O)Nc2ccccc2)c1)NO` [Belinostat, (2E)-N-hydroxy-3-[3-(phenylsulfamoyl)phenyl]prop-2-enamide], for which the concentration for half-maximal inhibition (IC50) in data set [1] (setting [4]) and in data set [3] (setting [5]) was 250 nM in each case. Moreover, the “cell survival of non-tumor cells (sensitivity)” value (“cell survival of non-tumor cells” below) in data set [2] is given as “insensitive”.
For the compound `Nc1ccccc1NC(=O)c1ccc(CNC(=O)OCc2cccnc2)cc1` [Entinostat], the IC50 (as a rule, the concentration at which inhibition is half-maximal) in data set [1] (setting [4]) is 10 nM; in data set [3] (setting [5]) it was 100 nM. Besides, the “cell survival of non-tumor cells” value in data set [2] is on record as “insensitive”.
Turning to `C/C=C1\NC(=O)[C@H]2CSSCC/C=C/[C@H](CC(=O)N[C@H](C(C)C)C(=O)N2)OC(=O)[C@H](C(C)C)NC1=O` [Romidepsin], the IC50 in data set [1] was 1 nM; in data set [3], 0.4 nM. The “cell survival of non-tumor cells” value in data set [2] is “showed a sensitivity”.
On to `O=C(CCCCCCC(=O)Nc1ccccc1)NO` [Vorinostat, N-hydroxy-N'-phenyloctanediamide], for which, in data set [2], the “cell survival of non-tumor cells” value was “showed a sensitivity”.
